Assay results from patent US20240407315A1, “PLANT DISEASE […] METHOD, PLANT DISEASE […] DEVICE, AND PLANT DISEASE […] AGENT” (TOHOKU UNIVERSITY, priority 2021, published 2024).

Columns and labels:
[1] = test system: PDF1.2, ORA59, PAD3, CYP71A12, NIT2, and WRKY26; assay: RNA sequencing (RNA-seq) gene expression analysis after gas exposure; type: in vivo, Arabidopsis thaliana
Procedure: A plant was exposed to dinitrogen pentoxide using the plant disease resistance inducing device 10 illustrated in FIG. 1, and a gene expression was analyzed by RNA sequencing (RNA-seq) and quantitative real-time PCR (qRT-PCR). In the RNA-seq analysis, Arabidopsis thaliana at 5 week of seeding was exposed to dinitrogen pentoxide once a day for 3 days. In each exposure, Arabidopsis thaliana was exposed to dinitrogen pentoxide from a distance of 5 cm for 20 seconds. A concentration of dinitrogen pentoxide in the gas for the exposure was set to about 200 ppm or lower. Twenty-four hours after the last exposure, leaves that had fully developed were collected, from which the total RNA was extracted, followed by RNA-seq analysis. For comparison, as a control plot, a leaf exposed to dry air under the same condition was also subjected to the RNA-seq analysis.
Genes with expression levels not less than twice as high as that of the control plot, induced by the dinitrogen pentoxide exposure, and genes with reduced expression levels not more than half as high as that of the control plot were extracted. As a result, 1304 genes with twice or more of induced expression levels, and 1209 genes with expression levels reduced to half or less were found.
Based on the result of the RNA-seq, six genes: PDF1.2, ORA59, PAD3, CYP71A12, NIT2, and WRKY26, were selected as candidate marker genes for the dinitrogen pentoxide exposure. Herein, PDF1.2 is an antimicrobial peptide gene and is often used as a marker gene for jasmonic acid and ethylene. ORA59 is a gene related to regulation of PDF1.2 expression. PAD3 is a gene related to biosynthesis of an antimicrobial substance camalexin, which is synthesized and induced by jasmonic acid. CYP71A12 is a gene related to a tryptophan metabolism at an upstream of PAD3. NIT2 is a gene related to biosynthesis of auxin that is another plant hormone derived from tryptophan. WRKY26 is a gene which, as is known, functionally overlaps with a transcription factor WRKY33 that regulates jasmonic acid signals.

[2] = test system: Ca^2+ signals (calcium ion response); assay: Live GFP fluorescence imaging of Ca^2+ signals in GCaMP-expressing plants after gas exposure; type: in vivo, Arabidopsis thaliana; conditions: about 200 ppm or lower, 10 seconds
Excerpt: An experiment was implemented, in which a plant was exposed to dinitrogen pentoxide to confirm induction of Ca^2+ signals (calcium ion response) as information of injuries similar to insect damages or physical injuries, using the plant disease resistance inducing device 10 illustrated in FIG. 1.
First, Ca^2+ signals that had appeared by exposing the whole body of Arabidopsis thaliana to dinitrogen pentoxide were observed. In the experiment, the concentration of dinitrogen pentoxide in the gas for the exposure was set to about 200 ppm or lower, and the exposure time was set to 10 seconds. For comparison, Ca^2+ signals that had appeared by exposing the whole body of Arabidopsis thaliana to dry air were also observed under the same condition. FIG. 2 presents states of Arabidopsis thaliana before the exposure, and states of the Ca^2+ signals 60 seconds after the termination of the exposure.
Next, Ca^2+ signals that had appeared by exposing one leaf of Arabidopsis thaliana to dinitrogen pentoxide were observed. In the experiment, only one leaf of Arabidopsis thaliana (leaf surrounded by dotted line in FIG. 3(a)) was exposed to dinitrogen pentoxide. The concentration of dinitrogen pentoxide in the gas for the exposure was set to about 200 ppm or lower, and the exposure time was set to 10 seconds.

Arabidopsis thaliana = assay: Observation of leaf damage after gas exposure; type: in vivo; conditions: immediately after exposure and the next day
[3] = test system: PDF1.2, ORA59, PAD3, CYP71A12, NIT2, and WRKY26; assay: qRT-PCR time course of marker gene expression relative to ACT2 gene; type: in vivo, Arabidopsis thaliana; conditions: single 20 seconds exposure from 5 cm
Procedure: Subsequently, the expression of each of the selected genes was analyzed by qRT-PCR. In the qRT-PCR, Arabidopsis thaliana at 5 week of seeding was exposed to dinitrogen pentoxide from a distance of 5 cm for 20 seconds. The dinitrogen pentoxide exposure was conducted only once. The whole above-ground part was sampled 1, 3, 6, 12, 24, and 48 hours after the exposure, from which the total RNA was extracted and then subjected to qRT-PCR. Using ACT2 gene as a control for endogenous genes, an expression level of each gene was determined as a value relative to the ACT2 gene expression level (Relative expression to ACT2 gene).
For comparison, time-dependent changes in the expression levels of each gene in Arabidopsis thaliana exposed to dry air under the same condition were also determined, and the results are presented in FIG. 5. For the experiment, three independent individuals were used, and the mean values and standard deviations of the three individuals are presented in FIG. 5. The same experiment was conducted twice independently, and the same results were obtained.

[4] = test system: cucumber mosaic virus (CMV) Macula lutea strain; assay: Suppression of viral growth: ELISA of virus coat protein in inoculated leaves; type: in vivo; conditions: Arabidopsis thaliana, 20 seconds once a day for 3 days, about 200 ppm or lower; inoculated 24 hours after last exposure; measured 2 days after inoculation
Excerpt: A plant was exposed to dinitrogen pentoxide using the plant disease resistance inducing device 10 illustrated in FIG. 1, and subjected to an experiment for examining an effect of suppressing viral growth. In the experiment, Arabidopsis thaliana at 5 week of seeding was exposed to dinitrogen pentoxide once a day for 3 days. In each exposure, Arabidopsis thaliana was exposed to dinitrogen pentoxide from a distance of 5 cm for 20 seconds. A concentration of dinitrogen pentoxide in the gas for the exposure was set to about 200 ppm or lower. Twenty-four hours after the last exposure, leaves that had fully developed were inoculated with a cucumber mosaic virus (CMV) Macula lutea strain by a friction inoculation method. Two days after the CMV inoculation, viral loads in the inoculated leaves were quantitatively measured by Enzyme-Linked Immuno Sorbent Assay (ELISA) method using an anti-CMV coat protein antibody.
For comparison, virus loads of Arabidopsis thaliana exposed to dry air and inoculated with CMV under the same condition, and Arabidopsis thaliana exposed to dry air and not inoculated with CMV (Mock) under the same condition were also quantitatively measured, and the results are presented in FIG. 6. For the experiment, six independent individuals were used, and the mean values and standard deviations of the six individuals are presented in FIG. 6. […]

[5] = 20 seconds once a day for 3 days, about 200 ppm or lower, leaves 24 hours after last exposure

**Q.** Which “gene ontology analysis result” value ([1]; 20 seconds once a day for 3 days, about 200 ppm or lower) does the source give for `O=[N+]([O-])O[N+](=O)[O-]` [dinitrogen pentoxide] here?
**A.** The value was “jasmonic acid signals were activated”.

**Q.** What about the “number of genes with expression levels reduced to half or less vs control plot” value [1, 5] of the same compound?
**A.** The value was 1209 genes.

**Q.** And the “number of genes with twice or more of induced expression levels vs control plot” value [1, 5]?
**A.** The value was 1304 genes.

**Q.** And the At-N2O5-_TPM ([1]; gene CYP71A12, control 0.000000)?
**A.** Its At-N2O5-_TPM is 0.797 TPM.

**Q.** What about the At-N2O5-_TPM ([1]; gene NIT2, control 0.000000) of the same compound?
**A.** Its At-N2O5-_TPM is 1.917 TPM.

**Q.** And the At-N2O5-_TPM ([1]; gene ORA59, control 0.074135)?
**A.** The At-N2O5-_TPM was 2.341 TPM.

**Q.** And the At-N2O5-_TPM ([1]; gene PAD3, control 0.312642)?
**A.** Its At-N2O5-_TPM is 1.293 TPM.

**Q.** And the At-N2O5-_TPM ([1]; gene WRKY26, control 0.035706)?
**A.** The At-N2O5-_TPM was 0.7565 TPM.

**Q.** What about the “time to activation of the Ca^2+ signals in the leaf directly exposed” value ([2]; one leaf exposed) of the same compound?
**A.** Its value is “about 20 seconds”.

**Q.** And the “spread of Ca^2+ signals after exposure of one leaf” value ([2]; one leaf exposed, observed up to 6 minutes)?
**A.** Its value is “spread to all leaves in the whole body through sieve tubes”.

**Q.** What about the “generation of Ca^2+ signals over the plant body” value ([2]; whole body exposed) of the same compound?
**A.** Its value is “slowly generated over the whole body”.

**Q.** And the “Ca^2+ signals after whole-body exposure” value ([2]; whole body exposed, observed 60 seconds after exposure, dry air gave no signals)?
**A.** The value was “Ca^2+ signals were observed”.

**Q.** And the “state of leaves after exposure” value (Arabidopsis thaliana)?
**A.** Its value is “not to curl up but to grow without withering”.

**Q.** And the “time after exposure from which ODR59 expression was induced” value [3]?
**A.** Its value is 1 h.

**Q.** And the “time after exposure from which PDF1.2 expression was induced” value [3]?
**A.** Its value is 6 h.

**Q.** And the “time of peak of transiently induced NIT2 expression” value [3]?
**A.** Its value is 12 h.

**Q.** What about the “time until which high ODR59 expression level was maintained” value [3] of the same compound?
**A.** The value was 48 h.

**Q.** What about the “time until which high PDF1.2 expression level was maintained” value [3] of the same compound?
**A.** The value was “at least 48 hours”.

**Q.** What about the “CMV growth (accumulation of virus coat protein) compared to dry air exposure” value [4] of the same compound?
**A.** The value was “significantly suppressed”.

**Q.** With `O=[O+][O-]` [ozone, reference compound] as the compound, how does the “state of leaves after exposure” value (Arabidopsis thaliana) read?
**A.** The value was “curl up immediately after the ozone exposure and wither the next day”.
